Patent publication US8557763B2, “Synthetic peptides that enhance tight junction permeability” (Alba Therapeutics Corporation, priority 2007, dated 2013)
Where no end group is shown, it is not given here. [ ]: non-standard residue; d: D form. AllylGly = C=CC[C@H](N)C(=O)O

Tests used:
CaCo2 monolayers [1] = assay: Lucifer Yellow (LY) permeability assay through CaCo2 monolayers; type: cell-based; parameters: key to Enhanced LY permeability: + indicates an enhancement of the permeability of the tight junctions were observed; − indicates no enhancement of permeability was observed; details: for Enhanced LY permeability: CaCo2 monolayers, Lucifer Yellow flux
From the text: (§1) Agonists of tight junctions can be identified by their ability to enhance the flux of compounds (e.g. ions, Lucifer Yellow) through a cell monolayer that comprises tight junctions; or by their ability to reduce TEER across a cell monolayer that comprises tight junctions. Treatment of CaCo2 monolayers with peptide FCIGRL (SEQ ID NO: 1) led to a 51-fold enhancement of Lucifer Yellow permeability through CaCo2 monolayers compared to vehicle alone.
(§2) Tight junction agonists can be identified and tested using the following method:
(§3) Determination of TEER and Lucifer Yellow Flux
(§4) Prepare Modified Hank's Balanced Salt Solution (MHBSS) by obtaining 1 L bottle of HBSS removing 10 ml of HBSS and replacing it with 10 ml HEPES buffer pH 7.0. Adjust pH to 7.4±0.1 using concentrated NaOH (10N).
(§5) Remove CaCo-2 cells from incubator, grown on 12-well, 3.0 μM, polycarbonate Transwell® filters (Corning) and record passage#, date cells seeded and age in days.
(§6) Aspirate cell culture medium from both the apical (AP) and basolateral (BL) compartments, replacing with 0.5 ml and 1.5 ml of MHBSS, respectively. Incubate cells at 37° C. for 30 minutes.
(§7) Aspirate solution from the apical compartment of each filter (n=3 per condition) and replace with 0.5 ml of control and test solutions containing Lucifer Yellow and test compound if appropriate.
(§8) Place all plates into incubator set at 37° C. (±0.2), 50 RPM (±5) for a total of 180 minutes.
At t=60, 120 and 180 minutes remove […] from each basolateral compartment and place it in a 96-well plate for Lucifer Yellow analysis, replace with 100 μl of MHBSS.
Make a Lucifer Yellow standard curve with the following dilutions (7500 μM, 3750 μM, 750 μM, 375 μM, 37.5 μM, 7.5 μM, 3.75 μM, 0.75 μM) and pipette 100 μL of each into a 96-well plate except for the first three standards mentioned above which require a 1:10 dilutions prior to transferring to the 96-well plate.
Harvest the remaining start solutions and what is left in each apical compartment into 1.5 ml vials. Freeze at −20° C. for future analysis.
Analyze each 96-well plate in a Tecan Spectra Fluor Plus using Magellan at 485 and 535 nm.
(§9) Cells: CaCo-2 cells passage 40-60 grown on Transwell® plates for 21-28 days
(§10) Culture Medium: DMEM supplemented with 10% fetal bovine serum, 1% NEAA, 1% Penn/Strep
(§11) Buffers: Hank's Balanced Salt Solution (HBSS) without calcium and magnesium
(§12) Flasks: 100×20 mm Tissue culture dish Falcon.
(§13) Plates: 12 well polycarbonate Transwell® filters; 0.3 uM pore size

CaCo2 monolayers [2] = assay: Trans Epithelial Electric Resistance (TEER) across CaCo2 monolayers; type: cell-based; parameters: key to Reduced TEER: + indicates an enhancement of the permeability of the tight junctions were observed; − indicates no enhancement of permeability was observed; details: for Reduced TEER: CaCo2 monolayers
From the text: as §1
Treatment of CaCo2 monolayers with peptide FCIGRL led to a 16-fold decrease in TEER across CaCo2 monolayers compared to vehicle alone.
as §2, §3, §4, §5, §6
Using the MilliCell®-ERS instrument (Millipore), measure and record the transepithelial electrical resistance (TEER) across each filter and record.
as §7, §8
At t=30, 60, 120 and 180 minutes, measure and record the transepithelial electrical resistance (TEER) across each filter using the MilliCell-ERS instrument.
as §9, §10, §11, §12, §13

Substance	Enhanced LY permeability (CaCo2 monolayers [1])	Reduced TEER (CaCo2 monolayers [2])	enhancement of Lucifer Yellow permeability through CaCo2 monolayers (CaCo2 monolayers [1]; compared to vehicle alone)	decrease in TEER across CaCo2 monolayers (CaCo2 monolayers [2]; compared to vehicle alone)
27 (F[AllylGly]FGRL-NH2; N-terminus assumed; SMILES C=CC[C@H](NC(=O)[C@@H](N)Cc1ccccc1)C(=O)N[C@@H](Cc1ccccc1)C(=O)NCC(=O)N[C@@H](CCCNC(=N)N)C(=O)N[C@@H](CC(C)C)C(N)=O) [compound 27]	+	+		
23 (F[AllylGly]FGRL-NH2; N-terminus assumed; SMILES C=CC[C@H](NC(=O)[C@@H](N)Cc1ccccc1)C(=O)N[C@@H](Cc1ccccc1)C(=O)NCC(=O)N[C@@H](CCCNC(=N)N)C(=O)N[C@@H](CC(C)C)C(N)=O) [compound 23]	+	+		
84 (F[AllylGly]IGRN-NH2; N-terminus assumed; SMILES C=CC[C@H](NC(=O)[C@@H](N)Cc1ccccc1)C(=O)N[C@H](C(=O)NCC(=O)N[C@@H](CCCNC(=N)N)C(=O)N[C@@H](CC(N)=O)C(N)=O)[C@@H](C)CC) [compound 84]	+	+		
74 (F[AllylGly]IGRD-NH2; N-terminus assumed; SMILES C=CC[C@H](NC(=O)[C@@H](N)Cc1ccccc1)C(=O)N[C@H](C(=O)NCC(=O)N[C@@H](CCCNC(=N)N)C(=O)N[C@@H](CC(=O)O)C(N)=O)[C@@H](C)CC) [compound 74]	+	+		
33 (F[AllylGly]EGRL-NH2; N-terminus assumed; SMILES C=CC[C@H](NC(=O)[C@@H](N)Cc1ccccc1)C(=O)N[C@@H](CCC(=O)O)C(=O)NCC(=O)N[C@@H](CCCNC(=N)N)C(=O)N[C@@H](CC(C)C)C(N)=O) [compound 33]	+	+		
78 (F[AllylGly]IGRG-NH2; N-terminus assumed; SMILES C=CC[C@H](NC(=O)[C@@H](N)Cc1ccccc1)C(=O)N[C@H](C(=O)NCC(=O)N[C@@H](CCCNC(=N)N)C(=O)NCC(N)=O)[C@@H](C)CC) [compound 78]	+	−		
8 (S[AllylGly]IGRL-NH2; N-terminus assumed; SMILES C=CC[C@H](NC(=O)[C@@H](N)CO)C(=O)N[C@H](C(=O)NCC(=O)N[C@@H](CCCNC(=N)N)C(=O)N[C@@H](CC(C)C)C(N)=O)[C@@H](C)CC) [compound 8]	−	−		
72 (F[AllylGly]IGVL-NH2; N-terminus assumed; SMILES C=CC[C@H](NC(=O)[C@@H](N)Cc1ccccc1)C(=O)N[C@H](C(=O)NCC(=O)N[C@H](C(=O)N[C@@H](CC(C)C)C(N)=O)C(C)C)[C@@H](C)CC) [compound 72]	−	+		
43 (F[AllylGly]IPRL-NH2; N-terminus assumed; SMILES C=CC[C@H](NC(=O)[C@@H](N)Cc1ccccc1)C(=O)N[C@H](C(=O)N1CCC[C@H]1C(=O)N[C@@H](CCCNC(=N)N)C(=O)N[C@@H](CC(C)C)C(N)=O)[C@@H](C)CC) [compound 43]	−	−		
FCIGRL [SEQ ID NO: 1, Phe−Cys−Ile−Gly−Arg−Leu, reference compound]			51 fold	16 fold
89 (FXIGRP-NH2; not fully specified (residue 2); printed as Phe−Allylaly−Ile−Gly−Arg−Pro−NH2) [compound 89]	−	−		
79 (F[AllylGly]IGRQ-NH2; N-terminus assumed; SMILES C=CC[C@H](NC(=O)[C@@H](N)Cc1ccccc1)C(=O)N[C@H](C(=O)NCC(=O)N[C@@H](CCCNC(=N)N)C(=O)N[C@@H](CCC(N)=O)C(N)=O)[C@@H](C)CC) [compound 79]	−	−		
54 (F[AllylGly]IVRL-NH2; N-terminus assumed; SMILES C=CC[C@H](NC(=O)[C@@H](N)Cc1ccccc1)C(=O)N[C@H](C(=O)N[C@H](C(=O)N[C@@H](CCCNC(=N)N)C(=O)N[C@@H](CC(C)C)C(N)=O)C(C)C)[C@@H](C)CC) [compound 54]	−	+		
28 (F[AllylGly]VGRL-NH2; N-terminus assumed; SMILES C=CC[C@H](NC(=O)[C@@H](N)Cc1ccccc1)C(=O)N[C@H](C(=O)NCC(=O)N[C@@H](CCCNC(=N)N)C(=O)N[C@@H](CC(C)C)C(N)=O)C(C)C) [compound 28]	−	−		
32 (F[AllylGly]DGRL-NH2; N-terminus assumed; SMILES C=CC[C@H](NC(=O)[C@@H](N)Cc1ccccc1)C(=O)N[C@@H](CC(=O)O)C(=O)NCC(=O)N[C@@H](CCCNC(=N)N)C(=O)N[C@@H](CC(C)C)C(N)=O) [compound 32]	+	+		
86 (F[AllylGly]IGRK-NH2; N-terminus assumed; SMILES C=CC[C@H](NC(=O)[C@@H](N)Cc1ccccc1)C(=O)N[C@H](C(=O)NCC(=O)N[C@@H](CCCNC(=N)N)C(=O)N[C@@H](CCCCN)C(N)=O)[C@@H](C)CC) [compound 86]	+	−		
88 (F[AllylGly]IGRW-NH2; N-terminus assumed; SMILES C=CC[C@H](NC(=O)[C@@H](N)Cc1ccccc1)C(=O)N[C@H](C(=O)NCC(=O)N[C@@H](CCCNC(=N)N)C(=O)N[C@@H](Cc1c[nH]c2ccccc12)C(N)=O)[C@@H](C)CC) [compound 88]	+	+		
58 (F[AllylGly]IGQL-NH2; N-terminus assumed; SMILES C=CC[C@H](NC(=O)[C@@H](N)Cc1ccccc1)C(=O)N[C@H](C(=O)NCC(=O)N[C@@H](CCC(N)=O)C(=O)N[C@@H](CC(C)C)C(N)=O)[C@@H](C)CC) [compound 58]	−	−		
83 (F[AllylGly]IGRS-NH2; N-terminus assumed; SMILES C=CC[C@H](NC(=O)[C@@H](N)Cc1ccccc1)C(=O)N[C@H](C(=O)NCC(=O)N[C@@H](CCCNC(=N)N)C(=O)N[C@@H](CO)C(N)=O)[C@@H](C)CC) [compound 83]	−	−		
52 (F[AllylGly]INRL-NH2; N-terminus assumed; SMILES C=CC[C@H](NC(=O)[C@@H](N)Cc1ccccc1)C(=O)N[C@H](C(=O)N[C@@H](CC(N)=O)C(=O)N[C@@H](CCCNC(=N)N)C(=O)N[C@@H](CC(C)C)C(N)=O)[C@@H](C)CC) [compound 52]	+	+		
7 (L[AllylGly]IGRL-NH2; N-terminus assumed; SMILES C=CC[C@H](NC(=O)[C@@H](N)CC(C)C)C(=O)N[C@H](C(=O)NCC(=O)N[C@@H](CCCNC(=N)N)C(=O)N[C@@H](CC(C)C)C(N)=O)[C@@H](C)CC) [compound 7]	+	−		
38 (F[AllylGly]YGRL-NH2; N-terminus assumed; SMILES C=CC[C@H](NC(=O)[C@@H](N)Cc1ccccc1)C(=O)N[C@@H](Cc1ccc(O)cc1)C(=O)NCC(=O)N[C@@H](CCCNC(=N)N)C(=O)N[C@@H](CC(C)C)C(N)=O) [compound 38]	+	+		
48 (F[AllylGly]IQRL-NH2; N-terminus assumed; SMILES C=CC[C@H](NC(=O)[C@@H](N)Cc1ccccc1)C(=O)N[C@H](C(=O)N[C@@H](CCC(N)=O)C(=O)N[C@@H](CCCNC(=N)N)C(=O)N[C@@H](CC(C)C)C(N)=O)[C@@H](C)CC) [compound 48]	+	+		
77 (F[AllylGly]IGRA-NH2; N-terminus assumed; SMILES C=CC[C@H](NC(=O)[C@@H](N)Cc1ccccc1)C(=O)N[C@H](C(=O)NCC(=O)N[C@@H](CCCNC(=N)N)C(=O)N[C@@H](C)C(N)=O)[C@@H](C)CC) [compound 77]	+	−		
